Measurements taken from patent US20090136468A1, “PERI-OPERATIVE COMPOSITION COMPRISING LACTOBACILLUS RHAMNOSUS” (N.V. NUTRICIA, priority 2004, published 2009).

What was measured:
L. rhamnosus LMG P-22799 = test: MIC by serial dilution of antibiotics in MRS broth; format: cell-based, Lactobacillus rhamnosus; details: 24 hours at 37° C.
Procedure: (§1) The Minimal inhibitory concentration (MIC) was determined by serial dilution of the tested antibiotics in MRS broth (Oxoid) and inoculate the broth with the probiotic strain to be tested.
(§2) Strains of Lactobacilli were cultured for 24 hours in MRS-broth at 37° C. and under aerobic conditions. A dilution series of the 24 hours-culture in MRS-broth was prepared (dilution factor 10, from 10^−1 to 1^−10). The dilution series were cultured overnight (i.e. 16 h) at 37° C. under aerobic conditions. The highest dilution in which still growth was observed was selected to inoculate a 96-wells plate. The culture was centrifuge for 10 min at 3800 rpm and 4° C. and resuspended in the same volume of PBS (4° C.). The Lactobacilli were counted under a microscope and the solution was diluted in cold PBS to obtain a concentration of 1*10^8 cells/ml.
(§3) Wells of a 96-wells plate were filled with MRS broth and with antibiotics in varying dilution to a total volume of 95 μl. As a control, no antibiotics were added. The following final dilutions of antibiotics were tested:
(§4) bacitracin, colistin, nystatin, polymixin B, vancomycin: 1000, 500, 250, 125, 62.5 ug/ml erythromycin, kanamycin, neomycm: 100, 50, 25, 12.5, 6.25 ug/ml ampicillin, chloramphenicol, lincomycin, penicillin, streptomycin, tetracyclin: 10, 5, 2.5, 1.25, 0.625 ug/ml
(§5) The plates were incubated for 24 hours at 37° C. in a SpectaMAX plate reader (shaking every 10 minutes for 20 seconds) and the optical density was determined at 600 nm.

[1] = tested on: L. rhamnosus GG (ATCC 53103); test: MIC by serial dilution of antibiotics in MRS broth; format: cell-based, Lactobacillus rhamnosus; details: 24 hours at 37° C.
Procedure: as §1, §2, §3, §4, §5

Lb. rhamnosus GG = test: Broth micro dilution test, MIC; format: cell-based, Lactobacillus rhamnosus; details: Lacticaseibacillus rhamnosus, unit from Table 6, read-out: MIC against Lb. rhamnosus GG
Procedure: (§6) The inocula of 131 strains of Lactobacillus rhamnosus species are prepared by suspending several freshly cultivated single colonies in a tube with 5 ml of saline up to an optical density of McFarland standard No. 0.5. The corresponding colonies are picked up from MRS (de Man, Rogosa, Sharpe) agar plates on which the strains grew for 48 h at 37° C. and at 5% CO2 atmosphere. Subsequently, this suspension is diluted 1:10 by transferring 4 ml of the McFarland No. 0.5 suspension into a suitable inoculum container with 36 ml of saline and subsequent careful mixing. The MIC microtiter test plates (95 wels with different concentrations of the test antibiotics and one wel for the growth control without any antibiotic) were prepared before. Nutrient medium: LSM (lactobacilli susceptibility test medium) broth consisting of 90% Iso-sensitest broth plus 10% MRS broth (pH 6.7). The inoculations of the pre-made MIC test plates are performed by a multipoint inoculator (final inoculum of these LAB in the microtiter plate: about 10^5 bacteria ml^−1). The plates are subsequently incubated in ambient air or in a 5% CO2 atmosphere at 37° C. for 24 (−48) h. Then the MICs are read as the lowest concentration in the increasing concentration row of the corresponding antibiotic in which no growth of the test organism was observed. The control attempt (without antibiotic) of the corresponding strain tested has to show sufficient growth.
(§7) In a large study comprising 131 different Lb. rhamosus strains the sensitivity for antibiotics was tested. In table 6 the number of strains falling within a certain dilution factor are shown. Clearly there are large differences in antibiotic sensitivity within the Lb. rhamnosus group. The more sensitive to these antibiotics, the better and together with the other parameters, such as the inhibition of adhesion of pathogens to intestinal epithelial cells is used to select the most appropriate Lb. rhamnosus. […]

[2] = tested on: our preferred Lb. rhamnosus (LMG P-22799); test: Broth micro dilution test, MIC; format: cell-based, Lactobacillus rhamnosus
Procedure: as §6, §7

[3] = tested on: 131 strains of Lactobacillus rhamnosus; test: Broth micro dilution test, MIC distribution; format: cell-based; details: 131 L. rhamnosus strains, LSM broth, 37° C.
Procedure: as §6

Row | Compound | Antibiotic sensitivity (expressed as MIC) of L. rhamnosus LMG P-22799 (L. rhamnosus LMG P-22799) [µg/mL] | Antibiotic sensitivity (expressed as MIC) of L. rhamnosus GG (ATTC 53103) [1] [µg/mL] | Number of strains with a MIC of 0.5 μg/ml [3] | Number of strains with a MIC of 1.0 μg/ml [3] | Number of strains with a MIC of 2.0 μg/ml [3] | Number of strains with a MIC of 4.0 μg/ml [3] | other results
1 | CC1(C)S[C@@H]2[C@H](NC(=O)[C@H](N)c3ccccc3)C(=O)N2[C@H]1C(=O)O [Ampicillin, ampicillin] | 2.5 | >10 | 52 | 62 | 12 | 2 | MIC (Lb. rhamnosus GG): ≥ 1 µg/mL; AMP sensitivity ratio LGG/LMG P-22799 [2]: 2-4; MIC ([2]; Lacticaseibacillus rhamnosus, unit from Table 6, read-out: MIC against our preferred Lb. rhamnosus): ≤ 0.5 µg/mL; Number of strains with a MIC of 0.25 μg/ml [3]: 3
2 | O=C(N[C@H](CO)[C@H](O)c1ccc([N+](=O)[O-])cc1)C(Cl)Cl [CMP] |  |  | 1 | 10 | 88 | 31 | Number of strains with a MIC of 8.0 μg/ml [3]: 1
3 | O=C(N[C@H](CO)[C@H](O)c1ccc([N+](=O)[O-])cc1)C(Cl)Cl [Chloramphenicol, chloramphenicol] | 5 | >10 |  |  |  |  | 
4 | CC[C@H]1OC(=O)[C@H](C)[C@@H](O[C@H]2C[C@@](C)(OC)[C@@H](O)[C@H](C)O2)[C@H](C)[C@@H](O[C@@H]2O[C@H](C)C[C@H](N(C)C)[C@H]2O)[C@](C)(O)C[C@@H](C)C(=O)[C@H](C)[C@@H](O)[C@]1(C)O [Erythromycin, erythromycin] | 50 | >100 |  |  |  |  | 
5 | CCC[C@@H]1C[C@@H](C(=O)N[C@@H]([C@H]2O[C@H](SC)[C@H](O)[C@@H](O)[C@H]2O)[C@@H](C)O)N(C)C1 [Lincomycin, lincomycin] | 5 | 10 |  |  |  |  | 
6 | [H]/N=C(/N)N[C@H]1[C@H](O)[C@@H](O)[C@H](O[C@@H]2O[C@@H](C)[C@](O)(C=O)[C@H]2O[C@@H]2O[C@@H](CO)[C@H](O)[C@@H](O)[C@@H]2NC)[C@@H](N/C(N)=N\[H])[C@@H]1O [STR] |  |  |  |  | 37 | 52 | Number of strains with a MIC of 8.0 μg/ml [3]: 21
7 | [H]/N=C(/N)N[C@H]1[C@H](O)[C@@H](O)[C@H](O[C@@H]2O[C@@H](C)[C@](O)(C=O)[C@H]2O[C@@H]2O[C@@H](CO)[C@H](O)[C@@H](O)[C@@H]2NC)[C@@H](N/C(N)=N\[H])[C@@H]1O [Streptomycin, streptomycin] | 5 | >10 |  |  |  |  | 
8 | CN(C)[C@@H]1C(=O)C(C(N)=O)=C(O)[C@@]2(O)C(=O)C3=C(O)c4c(O)cccc4[C@@](C)(O)[C@H]3C[C@@H]12 [Tetracyclin, tetracyclin] | 2.5 | 10 |  |  |  |  | 
9 | penicillin |  |  | 28 | 11 | 7 |  | Number of strains with a MIC of 0.125 μg/ml [3]: 9; Number of strains with a MIC of 0.25 μg/ml [3]: 76
